# Laboratory results as given in ChEMBL document CHEMBL5532665 (J Med Chem, 2024).
# Calls of active or inactive are those of the source. The calls are words filed in the database; no cut-off is given here.
# Columns and labels:
# [1] = target: T1, Kappa-type opioid receptor (Homo sapiens, UniProt P41145); test: Agonist activity at human KOR expressed in CHO-K1 cells co-expressing G-alpha15 upto 100 uM by calcium mobilization assay; assay type: functional, cell-based
# Mus musculus [2] = test: Antinociceptive activity in Kunming mouse model assessed as latency of tail withdrawal at 144.4 nmol/kg, sc measured for 10 mins by tail-flick test relative to control; assay type: functional
# Mus musculus [3] = test: Antinociceptive activity in Kunming mouse model assessed as latency of tail withdrawal at 144.4 nmol/kg, sc measured for 30 mins by tail-flick test relative to control; assay type: functional; conditions: 0.5 h
# Mus musculus [4] = test: Antinociceptive activity in Kunming mouse model assessed as latency of tail withdrawal at 144.4 nmol/kg, sc measured for 60 mins by tail-flick test relative to control; assay type: functional; conditions: 1 h
# Mus musculus [5] = test: Antinociceptive activity in Kunming mouse model assessed as latency of tail withdrawal at 144.4 nmol/kg, sc measured for 120 mins by tail-flick test relative to control; assay type: functional; conditions: 2 h
# Mus musculus [6] = test: Antinociceptive activity in Kunming mouse model assessed as latency of tail withdrawal at 13881 nmol/kg, sc measured for 10 mins by tail-flick test relative to control; assay type: functional
# Mus musculus [7] = test: Antinociceptive activity in Kunming mouse model assessed as latency of tail withdrawal at 13881 nmol/kg, sc measured for 30 mins by tail-flick test relative to control; assay type: functional; conditions: 0.5 h
# Mus musculus [8] = test: Antinociceptive activity in Kunming mouse model assessed as latency of tail withdrawal at 13881 nmol/kg, sc measured for 60 mins by tail-flick test relative to control; assay type: functional; conditions: 1 h
# Mus musculus [9] = test: Antinociceptive activity in Kunming mouse model assessed as latency of tail withdrawal at 13881 nmol/kg, sc measured for 120 mins by tail-flick test relative to control; assay type: functional; conditions: 2 h
# Mu-type opioid receptor = Mu-type opioid receptor (Homo sapiens, UniProt P35372); test: Agonist activity at human MOR expressed in CHO-K1 cells co-expressing G-alpha15 by calcium mobilization assay; assay type: functional, cell-based; conditions: cho-k1
# [10] = target: T1, Kappa-type opioid receptor; test: Agonist activity at human KOR expressed in CHO-K1 cells co-expressing G-alpha15 by calcium mobilization assay; assay type: functional, cell-based; conditions: cho-k1
# [11] = target: Delta-type opioid receptor (Homo sapiens, UniProt P41143); test: Agonist activity at human DOR expressed in CHO-K1 cells co-expressing G-alpha15 by calcium mobilization assay; assay type: functional, cell-based; conditions: cho-k1
# [12] = Stability in mouse plasma assessed as half life at 0.01 mol/L measured for 72 hrs by RP-HPLC analysis; assay type: ADME, cell-free
# [13] = Selectivity ratio of ED50 for inhibition of gastrointestinal motility in fasted Kunming mouse model treated subcutaneously to ED50 for antinociceptive activity in Kunming mouse model administered subcutaneously measured for 5 to 15 mins by acetic acid-induced writhing test; assay type: toxicity; conditions: in vivo, route sc, read-out: Ratio ED50
# [14] = Selectivity ratio of ED50 for inhibition of gastrointestinal motility in fasted Kunming mouse model treated subcutaneously to ED50 for antinociceptive activity in Kunming mouse model administered subcutaneously by tail-flick test; assay type: toxicity; conditions: in vivo, route sc, read-out: Ratio ED50
# [15] = Toxicity in Kunming mouse model assessed as effect on locomotor co-ordination at 13.8 nmol/kg, sc measured for 10 to 40 mins by rotarod test; assay type: organism-based; conditions: in vivo, time 10-40 min
# Mus musculus [16] = test: Antinociceptive activity in Kunming mouse model assessed as latency of tail withdrawal at 1.4 nmol/kg, sc measured for 10 mins by tail-flick test relative to control; assay type: functional
# Mus musculus [17] = test: Antinociceptive activity in Kunming mouse model assessed as latency of tail withdrawal at 1.4 nmol/kg, sc measured for 30 mins by tail-flick test relative to control; assay type: functional; conditions: 0.5 h
# Mus musculus [18] = test: Antinociceptive activity in Kunming mouse model assessed as latency of tail withdrawal at 1.4 nmol/kg, sc measured for 60 mins by tail-flick test relative to control; assay type: functional; conditions: 1 h
# Mus musculus [19] = test: Antinociceptive activity in Kunming mouse model assessed as latency of tail withdrawal at 1.4 nmol/kg, sc measured for 120 mins by tail-flick test relative to control; assay type: functional; conditions: 2 h
# Mus musculus [20] = test: Antinociceptive activity in Kunming mouse model administered subcutaneously by tail-flick test; assay type: functional; conditions: route sc
# Mus musculus [21] = test: Antinociceptive activity in Kunming mouse model administered orally by tail-flick test; assay type: functional; conditions: route po
# Mus musculus [22] = test: Antinociceptive activity in Kunming mouse model administered subcutaneously measured for 5 to 15 mins by acetic acid-induced writhing test; assay type: functional; conditions: route sc, time 5-15 min
# Mus musculus [23] = test: Inhibition of gastrointestinal motility in fasted Kunming mouse model treated subcutaneously for 15 mins followed by charcoal-gum arabic treatment measured after 30 mins; assay type: functional; conditions: 0.75 h, route sc, time 45 min
# Mus musculus [24] = test: Antinociceptive activity in Kunming mouse model assessed as latency of tail withdrawal at 132.2 nmol/kg, sc measured for 10 mins by tail-flick test relative to control; assay type: functional
# Mus musculus [25] = test: Antinociceptive activity in Kunming mouse model assessed as latency of tail withdrawal at 132.2 nmol/kg, sc measured for 30 mins by tail-flick test relative to control; assay type: functional; conditions: 0.5 h
# Mus musculus [26] = test: Antinociceptive activity in Kunming mouse model assessed as latency of tail withdrawal at 132.2 nmol/kg, sc measured for 60 mins by tail-flick test relative to control; assay type: functional; conditions: 1 h
# Mus musculus [27] = test: Antinociceptive activity in Kunming mouse model assessed as latency of tail withdrawal at 132.2 nmol/kg, sc measured for 120 mins by tail-flick test relative to control; assay type: functional; conditions: 2 h
# Mus musculus [28] = test: Antinociceptive activity in Kunming mouse model assessed as latency of tail withdrawal at 1404 nmol/kg, sc measured for 10 mins by tail-flick test relative to control; assay type: functional
# Mus musculus [29] = test: Antinociceptive activity in Kunming mouse model assessed as latency of tail withdrawal at 1404 nmol/kg, sc measured for 30 mins by tail-flick test relative to control; assay type: functional; conditions: 0.5 h
# Mus musculus [30] = test: Antinociceptive activity in Kunming mouse model assessed as latency of tail withdrawal at 1404 nmol/kg, sc measured for 60 mins by tail-flick test relative to control; assay type: functional; conditions: 1 h
# Mus musculus [31] = test: Antinociceptive activity in Kunming mouse model assessed as latency of tail withdrawal at 1404 nmol/kg, sc measured for 120 mins by tail-flick test relative to control; assay type: functional; conditions: 2 h
# T1 sequence (P41145 whole entry): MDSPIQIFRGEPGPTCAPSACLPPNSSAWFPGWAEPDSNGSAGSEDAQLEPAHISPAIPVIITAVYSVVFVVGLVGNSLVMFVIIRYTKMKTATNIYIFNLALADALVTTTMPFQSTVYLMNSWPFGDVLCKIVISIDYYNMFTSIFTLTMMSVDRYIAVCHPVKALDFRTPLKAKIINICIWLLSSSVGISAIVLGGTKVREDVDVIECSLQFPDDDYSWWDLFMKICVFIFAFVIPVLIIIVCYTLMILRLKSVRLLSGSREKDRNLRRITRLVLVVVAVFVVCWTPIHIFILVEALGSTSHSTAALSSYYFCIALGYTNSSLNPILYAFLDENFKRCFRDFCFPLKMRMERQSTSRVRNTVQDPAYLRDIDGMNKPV
# Mu-type opioid receptor, sequence (P35372 whole entry): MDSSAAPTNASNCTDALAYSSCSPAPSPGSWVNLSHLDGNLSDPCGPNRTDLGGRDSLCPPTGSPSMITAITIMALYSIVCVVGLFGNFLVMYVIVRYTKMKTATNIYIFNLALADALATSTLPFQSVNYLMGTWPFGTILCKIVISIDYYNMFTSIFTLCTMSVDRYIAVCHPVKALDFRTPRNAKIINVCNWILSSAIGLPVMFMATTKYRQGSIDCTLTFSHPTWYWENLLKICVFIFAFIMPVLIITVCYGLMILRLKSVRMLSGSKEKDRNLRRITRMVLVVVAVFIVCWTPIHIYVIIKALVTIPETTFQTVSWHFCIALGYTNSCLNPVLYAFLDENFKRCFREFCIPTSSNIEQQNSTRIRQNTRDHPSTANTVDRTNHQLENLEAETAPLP
# Delta-type opioid receptor, sequence (P41143 whole entry): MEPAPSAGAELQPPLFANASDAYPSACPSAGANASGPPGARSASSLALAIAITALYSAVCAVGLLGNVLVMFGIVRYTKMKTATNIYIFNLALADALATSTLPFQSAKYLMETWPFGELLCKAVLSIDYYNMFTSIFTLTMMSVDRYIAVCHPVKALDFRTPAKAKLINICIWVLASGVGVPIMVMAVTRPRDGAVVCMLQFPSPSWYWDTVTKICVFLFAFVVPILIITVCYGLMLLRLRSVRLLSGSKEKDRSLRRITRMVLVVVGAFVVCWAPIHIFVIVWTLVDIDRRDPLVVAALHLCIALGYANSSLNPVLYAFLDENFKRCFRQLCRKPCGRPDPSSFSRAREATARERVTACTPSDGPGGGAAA
structure (smiles),measurement,setting,value
NC(=O)[C@@H]1CCCN1C(=O)[C@H]1CC(=O)NCCCC[C@@H](NC(=O)[C@@H](N)Cc2ccc(O)cc2)C(=O)NCC(=O)N[C@@H](c2ccccc2)C(=O)N1,Activity,[1],inactive
same,MPE,Mus musculus [2],44.4%
same,MPE,Mus musculus [3],94.4%
same,MPE,Mus musculus [4],87.5%
same,MPE,Mus musculus [5],44.4%
CN1CC(=O)N[C@@H](Cc2ccccc2)C(=O)N[C@H](C(=O)N2CCC[C@@H]2C(N)=O)CC(=O)NCCCC[C@@H](NC(=O)[C@@H](N)Cc2ccc(O)cc2)C1=O,MPE,Mus musculus [6],53.2%
same,MPE,Mus musculus [7],92.7%
same,MPE,Mus musculus [8],75.7%
same,MPE,Mus musculus [9],58.7%
NC(=O)[C@H]1CCCN1C(=O)[C@@H]1CC(=O)NCCCC[C@@H](NC(=O)[C@@H](N)Cc2ccc(O)cc2)C(=O)NCC(=O)N[C@@H](Cc2ccc(F)cc2)C(=O)N1 [listing 1 of 2 here],EC50,Mu-type opioid receptor,0.9 nM
same,EC50,[10],92.2 nM
same,EC50,[11],0.6 nM
same,half-life at 0.01 mol/L,[12],53.5 h
same,selectivity ratio,[13],22
same,selectivity ratio,[14],55
same,Activity,[15],Non-Toxic
NC(=O)[C@H]1CCCN1C(=O)[C@@H]1CC(=O)NCCCC[C@@H](NC(=O)[C@@H](N)Cc2ccc(O)cc2)C(=O)NCC(=O)N[C@@H](Cc2ccc(F)cc2)C(=O)N1 [listing 2 of 2 here],MPE,Mus musculus [16],59.2%
same,MPE,Mus musculus [17],93.1%
same,MPE,Mus musculus [18],84.1%
same,MPE,Mus musculus [19],34.3%
same,ED50,Mus musculus [20],8e-05 µmol/kg
same,ED50,Mus musculus [21],9e-05 µmol/kg
same,ED50,Mus musculus [22],0.0002 µmol/kg
same,ED50,Mus musculus [23],0.0044 µmol/kg
NC(=O)[C@H]1CCCN1C(=O)[C@@H]1CC(=O)NCCCC[C@@H](NC(=O)[C@@H](N)Cc2ccc(O)cc2)C(=O)NCC(=O)N[C@@H](Cc2ccc3ccccc3c2)C(=O)N1,MPE,Mus musculus [24],78.1%
same,MPE,Mus musculus [25],94.8%
same,MPE,Mus musculus [26],76.9%
same,MPE,Mus musculus [27],26.8%
NC(=O)[C@H]1CCCN1C(=O)[C@@H]1CC(=O)NCCCC[C@@H](NC(=O)[C@@H](N)Cc2ccc(O)cc2)C(=O)NCC(=O)N[C@@H](CC2CCCCC2)C(=O)N1,MPE,Mus musculus [28],61.9%
same,MPE,Mus musculus [29],92.4%
same,MPE,Mus musculus [30],74.3%
same,MPE,Mus musculus [31],36.1%
